Reference: ChEMBL document CHEMBL1142401, “QSAR modeling of the rodent carcinogenicity of nitrocompounds” (2008)

Species: Rattus norvegicus
Assay: Anticarcinogenic activity in rat assessed as induction of tumors per day
Format: functional
In the case of `Nc1nnc(-c2ccc([N+](=O)[O-])o2)s1`, the TD50 is reported as 3.12 µmol/kg and the pTD50 is reported as 0.494. With `O=[N+]([O-])c1cccc2cccnc12` the TD50 was 54.836 µmol/kg and the pTD50 was 1.739. Molecule `O=[N+]([O-])c1ccc(-c2nc(N3CCOCC3)c3ccccc3n2)s1` has a TD50 of 14.692 µmol/kg and a pTD50 of 1.167. Work on `CC(=O)Nc1nc(-c2ccc([N+](=O)[O-])o2)cs1` yielded a TD50 of 28.63 µmol/kg and a pTD50 of 1.457. With `O=[N+]([O-])c1ccc(-c2nnc(O)o2)o1` the TD50 was 43.682 µmol/kg and the pTD50 was 1.64. Work on `O=C1NC(c2ccc([N+](=O)[O-])s2)Nc2ccccc21` (stereo not drawn) yielded a TD50 of 5.558 µmol/kg and a pTD50 of 0.745. In the case of `O=[N+]([O-])c1ccc(-c2cnc3ccccn23)o1`, the TD50 is reported as 68.938 µmol/kg and the pTD50 is reported as 1.838. For `CC(C)=NNc1nc(-c2ccc([N+](=O)[O-])o2)cs1`, the TD50 was 22.721 µmol/kg and the pTD50 was 1.356. `Nc1nc(-c2ccc([N+](=O)[O-])o2)cs1` gave a TD50 of 27.699 µmol/kg and a pTD50 of 1.442. With `NC(=O)/C(=C\c1ccc([N+](=O)[O-])o1)c1ccco1` the TD50 was 45.932 µmol/kg and the pTD50 was 1.662. Molecule `CC(=O)Nc1nc(NC(C)=O)nc(-c2ccc([N+](=O)[O-])o2)n1` has a TD50 of 41.798 µmol/kg and a pTD50 of 1.621. For `CC(C)(C)c1cc([N+](=O)[O-])cc([N+](=O)[O-])c1OS(C)(=O)=O`, the TD50 was 8.357 µmol/kg and the pTD50 was 0.922. Work on `Cc1cc(C)nc(-c2ccc([N+](=O)[O-])o2)n1` yielded a TD50 of 11.907 µmol/kg and a pTD50 of 1.076. In the case of `CC(=O)Nc1nnc(-c2ccc([N+](=O)[O-])o2)s1`, the TD50 is reported as 34.773 µmol/kg and the pTD50 is reported as 1.541. With `CC(=O)NCc1nc(-c2ccc([N+](=O)[O-])o2)no1` the TD50 was 20.62 µmol/kg and the pTD50 was 1.314. `CC(C)[N+](=O)[O-]` showed a TD50 of 3288.692 µmol/kg and a pTD50 of 3.517. `CN(C)C/N=c1\[nH]nc(/C=C/c2ccc([N+](=O)[O-])o2)o1` was tested, and the TD50 was 73.052 µmol/kg and the pTD50 was 1.864. `NNc1nc(-c2ccc([N+](=O)[O-])o2)cs1` was tested, and the TD50 was 12.51 µmol/kg and the pTD50 was 1.097. `CN(C)Nc1nc(-c2ccc([N+](=O)[O-])o2)cs1` showed a TD50 of 1.538 µmol/kg and a pTD50 of 0.187. Work on `Nc1nc(N)nc(-c2ccc([N+](=O)[O-])o2)n1` yielded a TD50 of 7.697 µmol/kg and a pTD50 of 0.886. `CC(=O)OC(OC(C)=O)c1ccc([N+](=O)[O-])o1` was tested, and the TD50 was 431.796 µmol/kg and the pTD50 was 2.635. `O=[N+]([O-])c1ccc(-c2nc(NCCO)c3ccccc3n2)s1` showed a TD50 of 12.139 µmol/kg and a pTD50 of 1.084. `COc1c(Cl)c(Cl)c([N+](=O)[O-])c(Cl)c1Cl` was tested, and the TD50 was 65.65 µmol/kg and the pTD50 was 1.82. Molecule `O=C(Nc1nc(-c2ccc([N+](=O)[O-])o2)cs1)C(F)(F)F` has a TD50 of 18.164 µmol/kg and a pTD50 of 1.259. `Nc1ncc([N+](=O)[O-])s1` gave a TD50 of 223.922 µmol/kg and a pTD50 of 2.35. For `O=[N+]([O-])c1ccc2c3c(cccc13)CC2`, the TD50 was 30.02 µmol/kg and the pTD50 was 1.48. With `Nc1nnc(-c2ccc([N+](=O)[O-])o2)o1` the TD50 was 13.971 µmol/kg and the pTD50 was 1.145. `Cl.O=C1OC(CN2CCOCC2)CN1/N=C/c1ccc([N+](=O)[O-])o1` (stereo not drawn) gave a TD50 of 8.665 µmol/kg and a pTD50 of 0.938. Work on `NNc1nc(-c2ccc([N+](=O)[O-])cc2)cs1` yielded a TD50 of 3.145 µmol/kg and a pTD50 of 0.498. Molecule `O=CNc1nc(-c2ccc([N+](=O)[O-])o2)cs1` has a TD50 of 21.195 µmol/kg and a pTD50 of 1.326. Work on `N/C(=N\O)c1ccc([N+](=O)[O-])o1` yielded a TD50 of 245.455 µmol/kg and a pTD50 of 2.39. Work on `O=[N+]([O-])c1ccc2ccc3cccc4ccc1c2c34` [1-NITROPYRENE] yielded a TD50 of 13.468 µmol/kg and a pTD50 of 1.129. `COc1ccccc1[N+](=O)[O-]` [2-NITROANISOLE] gave a TD50 of 69.87 µmol/kg and a pTD50 of 1.84. In the case of `Nc1ccc([N+](=O)[O-])cc1` [4-NITROANILINE], the TD50 is reported as 65.521 µmol/kg and the pTD50 is reported as 1.816. For `Cn1cnc([N+](=O)[O-])c1Sc1ncnc2[nH]cnc12` [AZATHIOPRINE], the TD50 was 36.428 µmol/kg and the pTD50 was 1.561. Work on `O=C(N[C@H](CO)[C@H](O)c1ccc([N+](=O)[O-])cc1)C(Cl)Cl` [CHLORAMPHENICOL] yielded a TD50 of 860.336 µmol/kg and a pTD50 of 2.935. Work on `Cc1ncc([N+](=O)[O-])n1C` [DIMETRIDAZOLE] yielded a TD50 of 120.458 µmol/kg and a pTD50 of 2.081. `CNc1ccc(N(CCO)CCO)cc1[N+](=O)[O-]` [HC BLUE NO. 1] was tested, and the TD50 was 1680.55 µmol/kg and the pTD50 was 3.23. `Cc1ncc([N+](=O)[O-])n1CCO` [METRONIDAZOLE] was tested, and the TD50 was 356.989 µmol/kg and the pTD50 was 2.553. `O=C1NCCN1/N=C/c1ccc([N+](=O)[O-])o1` [NIFURADENE] gave a TD50 of 23.646 µmol/kg and a pTD50 of 1.37. Work on `CC1CN(/N=C/c2ccc([N+](=O)[O-])o2)C(=O)N1` (stereo not drawn) [NIFURIMIDE] yielded a TD50 of 22.418 µmol/kg and a pTD50 of 1.351. `O=CNNc1nc(-c2ccc([N+](=O)[O-])o2)cs1` [NIFURTHIAZOLE] gave a TD50 of 13.925 µmol/kg and a pTD50 of 1.144. With `CCNC(=O)Nc1ncc([N+](=O)[O-])s1` [NITHIAZIDE] the TD50 was 605.88 µmol/kg and the pTD50 was 2.78. In the case of `O=[N+]([O-])c1ccccc1` [NITROBENZENE], the TD50 is reported as 47.681 µmol/kg and the pTD50 is reported as 1.678. Molecule `CC[N+](=O)[O-]` [NITROETHANE] has a TD50 of 29174.093 µmol/kg and a pTD50 of 4.465. `O=C1CN(/N=C/c2ccc([N+](=O)[O-])o2)C(=O)N1` [NITROFURANTOIN] gave a TD50 of 228.001 µmol/kg and a pTD50 of 2.358. Work on `NC(=O)N/N=C/c1ccc([N+](=O)[O-])o1` [NITROFURAZONE] yielded a TD50 of 32.907 µmol/kg and a pTD50 of 1.517. `O=[N+]([O-])OCC(CO[N+](=O)[O-])O[N+](=O)[O-]` [NITROGLYCERIN] showed a TD50 of 1448.787 µmol/kg and a pTD50 of 3.161. In the case of `CCCN(CCC)c1c([N+](=O)[O-])cc(C(F)(F)F)cc1[N+](=O)[O-]` [TRIFLURALIN], the TD50 is reported as 17567.456 µmol/kg and the pTD50 is reported as 4.245.
